Experimental data taken from patent US20230092163A1, “COMPOUNDS AND COMPOSITIONS FOR TREATING CONDITIONS ASSOCIATED WITH STING ACTIVITY” (IFM Due, Inc., priority 2019, published 2023).

Target: STING (Homo sapiens, UniProt Q86WV6, G230A/H232R/R293Q/R71H)
Assay: STING reporter assay: THP1-Dual KO-IFNAR2 cells stimulated with 2′3′cGAMP, luciferase reporter activity
Format: cell-based
Conditions: 15 μM 2′3′cGAMP, 24h
Description: STING pathway activation by the compounds described herein were measured using THP1-Dual™ cells (KO-IFNAR2).
THP1-Dual™ KO-IFNAR2 Cells (obtained from invivogen) were maintained in RPMI, 10% FCS, 5 ml P/S, 2 mM L-glut, 10 mM Hepes, and 1 mM sodium pyruvate. Compounds were spotted in empty 384 well tissue culture plates (Greiner 781182) by Echo for a final concentration of 0.0017-100 μM. Cells were plated into the TC plates at 40 μL per well, 2×10E6 cells/mL. For activation with STING ligand, 2′3′cGAMP (MW 718.38, obtained from Invivogen), was prepared in Optimem media.
The following solutions were prepared for each 1×384 plate: • Solution A: 2 mL Optimem with one of the following stimuli: • 60 uL of 10 mM 2′3′cGAMP ->150 μM stock • Solution B: 2 mL Optimem with 60 μL Lipofectamine 2000->Incubate 5 min at RT
2 mL of solution A and 2 ml Solution B was mixed and incubated for 20 min at room temperature (RT). 20 uL of transfection solution (A+B) was added on top of the plated cells, with a final 2′3′cGAMP concentration of 15 μM. The plates were then centrifuged immediately at 340 g for 1 minute, after which they were incubated at 37° C., 5% CO2, >98% humidity for 24h. Luciferase reporter activity was then measured. EC50 values were calculated by using standard methods known in the art.
Luciferase reporter assay: 10 μL of supernatant from the assay was transferred to white 384-plate with flat bottom and squared wells. One pouch of QUANTI-Luc™ Plus was dissolved in 25 mL of water. 100 μL of QLC Stabilizer per 25 mL of QUANTI-Luc™ Plus solution was added. 50 μL of QUANTI-Luc™ Plus/QLC solution per well is then added. Luminescence is measured on a Platereader (e.g., Spectramax I3X (Molecular Devices GF3637001)).
Luciferase reporter activity was then measured. EC50 values were calculated by using standard methods known in the art.

Chain of STING (Q86WV6 whole entry R71H/G230A/H232R/R293Q): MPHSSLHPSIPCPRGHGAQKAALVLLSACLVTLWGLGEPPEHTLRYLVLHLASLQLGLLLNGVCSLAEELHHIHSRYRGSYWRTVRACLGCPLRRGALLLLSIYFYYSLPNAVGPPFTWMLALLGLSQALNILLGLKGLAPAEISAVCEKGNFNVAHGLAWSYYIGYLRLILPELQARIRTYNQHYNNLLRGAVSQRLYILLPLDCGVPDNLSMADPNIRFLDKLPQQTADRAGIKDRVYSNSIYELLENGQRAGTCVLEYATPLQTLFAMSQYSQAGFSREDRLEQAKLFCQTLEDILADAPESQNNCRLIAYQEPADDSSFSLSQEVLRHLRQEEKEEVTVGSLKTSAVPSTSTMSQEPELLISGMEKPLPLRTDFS

## FC(F)(F)c1ccc2cnc(Nc3ccc4cc[nH]c4c3)nc2c1 [Compound 432, N-(1H-indol-6-yl)-7-(trifluoromethyl)quinazol in-2-amine]
Numeric bounds
  EC50: > 30 µM

## Fc1ccc2ccc(Nc3ccc4cc[nH]c4c3)nc2c1 [Compound 559, 7-fluoro-N-(1H-indol-6-yl)quinolin-2-amine]
Numeric bounds
  EC50: > 30 µM

## CCCCC1CCC(NC(=O)Nc2ccc3cc(Cl)[nH]c3c2)CC1 (stereo not shown) [Compound 260]
Class symbols
  EC50: 5 to 100 µM

## O=C(Nc1cccc(C(F)(F)F)c1)Nc1ccc2cc[nH]c2c1 [Compound 272]
Class symbols
  EC50: 0.2 to 1 µM

## O=C(Nc1ccc(C(F)(F)F)c(F)c1)Nc1ccc2cc[nH]c2c1 [Compound 253]
Class symbols
  EC50: 0.04 to 0.2 µM

## Fc1cnc(Nc2ccc3cc[nH]c3c2)cc1Nc1ccc2cc[nH]c2c1 [Compound 593, 5-fluoro-N2,N4-bis(1H-indol-6-yl)pyridine-2,4-diamine]
Class symbols
  EC50: 1 to 5 µM

## O=C(Nc1ccc(C(F)(F)F)cc1)Nc1cc(-c2ccccc2)c2cc[nH]c2c1 [Compound 169]
Class symbols
  EC50: 1 to 5 µM

## Fc1ccc2nc(Nc3ccc4cc[nH]c4c3)ccc2c1C(F)(F)F [Compound 550]
Class symbols
  EC50: 0.2 to 1 µM

## CNC(=O)c1cc(NC(=O)Nc2ccc(C(F)(F)F)cc2)cc2[nH]ccc12 [Compound 543]
Class symbols
  EC50: 5 to 100 µM

## O=C(Nc1ccc(C(F)(F)F)cc1)Nc1cc(Cl)c2cc[nH]c2c1 [Compound 251]
Class symbols
  EC50: 0.04 to 0.2 µM

## CC(C)c1ccc(NC(=O)Nc2ccc3cc[nH]c3c2)cc1 [Compound 234]
Class symbols
  EC50: 0.2 to 1 µM

## Cc1ccccc1NC(=O)Nc1ccc2[nH]ccc2c1 [Compound 365]
Numeric bounds
  EC50: > 30 µM

## N#Cc1c[nH]c2cc(NC(=O)Nc3cnc(N4CC(F)(F)C4)c(F)c3)ccc12 [Compound 530]
Numeric bounds
  EC50: > 30 µM

## CC(C)(C)c1cc(NC(=O)Nc2ccc3[nH]ccc3c2)on1 [Compound 305]
Numeric bounds
  EC50: > 30 µM

## CC(C)(C)OC(=O)N1CC(CCNC(=O)Nc2ccc3[nH]ccc3c2)C1 [Compound 316]
Numeric bounds
  EC50: > 30 µM

## CCCCc1ccc(NC(=O)Nc2ccc3[nH]ccc3c2)cc1 [Compound 378]
Class symbols
  EC50: 1 to 5 µM

## CC(C)c1cccc(Nc2ccc3cc[nH]c3c2)n1 [Compound 406, N-(6-isopropylpyridin-2-yl)-1H-indol-6-amine]
Class symbols
  EC50: 5 to 100 µM

## Cc1ccccc1NC(=O)Nc1ccc2cc[nH]c2c1 [Compound 231]
Numeric bounds
  EC50: > 30 µM

## CC(C)(C)OC(=O)N1CCc2cnc(Nc3ccc4cc[nH]c4c3)nc2C1 [Compound 428, tert-butyl 2-((1H-indol-6-yl)amino)-5,6-dihydropyrido[3,4-d]pyrimidine-7(8H)-carboxylate]
Class symbols
  EC50: 5 to 100 µM

## O=C(Nc1cccc(C(F)(F)F)c1)Nc1ccc2c(F)c[nH]c2c1 [Compound 523]
Class symbols
  EC50: 1 to 5 µM

## O=C(Nc1ccc(S(=O)(=O)C(F)(F)F)cc1)Nc1ccc2cc[nH]c2c1 [Compound 200]
Class symbols
  EC50: 0.2 to 1 µM

## Cc1cc2ccc(Nc3ccc4cc[nH]c4c3)nc2cc1C(F)(F)F [Compound 552]
Class symbols
  EC50: 0.2 to 1 µM

## Cc1cc(NC(=O)Nc2ccc3cc[nH]c3c2)ccc1C#N [Compound 227]
Class symbols
  EC50: 0.2 to 1 µM

## O=C(NCC1CCC1)Nc1ccc2cc[nH]c2c1 [Compound 216]
Numeric bounds
  EC50: > 30 µM

## O=C(Nc1ccc(C(F)(F)F)cc1)Nc1cc(Br)c2cc[nH]c2c1 [Compound 155]
Class symbols
  EC50: 0.04 to 0.2 µM

## c1ccc(-c2ccnc(Nc3ccc4cc[nH]c4c3)c2)cc1 [Compound 401, N-(4-phenylpyridin-2-yl)-1H-indol-6-amine]
Class symbols
  EC50: 1 to 5 µM

## N#Cc1c[nH]c2cc(NC(=O)Nc3cccc(C(F)(F)F)c3)ccc12 [Compound 539]
Class symbols
  EC50: 5 to 100 µM

## CCCCCNC(=O)Nc1ccc2cc[nH]c2c1 [Compound 188]
Class symbols
  EC50: 1 to 5 µM

## O=C(NCCc1ccccc1Br)Nc1ccc2[nH]ccc2c1 [Compound 304]
Numeric bounds
  EC50: > 30 µM

## CCc1ccccc1NC(=O)Nc1ccc2[nH]ccc2c1 [Compound 363, 1-(2-ethylphenyl)-3-(1H-indol-5-yl)urea]
Numeric bounds
  EC50: > 30 µM

## N#Cc1ccc(OC2CCC(NC(=O)Nc3ccc4cc[nH]c4c3)CC2)cc1 (stereo not shown) [Compound 195]
Class symbols
  EC50: 1 to 5 µM

## CC(C)c1ccc(-c2nnc(NC(=O)Nc3ccc4cc[nH]c4c3)s2)cc1 [Compound 182]
Class symbols
  EC50: 0.2 to 1 µM

## O=C(NCCc1cccc(Cl)c1)Nc1ccc2cc[nH]c2c1 [Compound 210]
Class symbols
  EC50: 1 to 5 µM

## O=C(Nc1ccc(Oc2c(F)cccc2F)cc1)Nc1ccc2[nH]ccc2c1 [Compound 278]
Numeric bounds
  EC50: > 30 µM

## N#Cc1c[nH]c2cc(NC(=O)Nc3ccc(C(F)(F)F)cc3)cc(F)c12 [Compound 528]
Class symbols
  EC50: 1 to 5 µM

## CCC(NC(=O)Nc1ccc2[nH]ccc2c1)c1cccc(C(F)(F)F)c1 (stereo not shown) [Compound 313]
Class symbols
  EC50: 5 to 100 µM

## CCOc1ccc(Nc2ccc3cc[nH]c3c2)nc1C [Compound 594, N-(5-ethoxy-6-methylpyridin-2-yl)-1H-indol-6-amine]
Class symbols
  EC50: 5 to 100 µM

## Cc1cc2cc[nH]c2cc1NC(=O)Nc1ccc(C(F)(F)F)cc1 [Compound 265]
Class symbols
  EC50: 5 to 100 µM

## O=C(Nc1ccnc(C(F)(F)F)c1)Nc1ccc2cc[nH]c2c1 [Compound 250]
Class symbols
  EC50: 1 to 5 µM

## Cc1cc(NC(=O)Nc2ccc(C(F)(F)F)cc2)cc2c1ccn2-c1cn[nH]c1 [Compound 156]
Numeric bounds
  EC50: > 30 µM

## CCS(=O)(=O)c1ccc(CNC(=O)Nc2ccc3[nH]ccc3c2)cn1 [Compound 300]
Numeric bounds
  EC50: > 30 µM

## O=C(Nc1ccc2cc[nH]c2c1)NC1Cc2ccccc2C1 [Compound 161]
Numeric bounds
  EC50: > 30 µM

## N#Cc1c[nH]c2ccc(NC(=O)Nc3ccc(C(F)(F)F)cc3)cc12 [Compound 373]
Numeric bounds
  EC50: > 100 µM

## COC1CN(c2ncc(NC(=O)Nc3cc(Cl)c4cc[nH]c4c3)cc2C)C1 [Compound 498]
Numeric bounds
  EC50: > 30 µM

## O=C(Nc1ccc(C(F)(F)F)cc1)Nc1cnc2cc[nH]c2c1 [Compound 111]
Class symbols
  EC50: 0.2 to 1 µM

## O=C(Nc1cc(F)cc(C(F)(F)F)c1)Nc1cc(CCO)c2cc[nH]c2c1 [Compound 501]
Class symbols
  EC50: 1 to 5 µM

## Cc1ccc2nc(Nc3ccc4cc[nH]c4c3)ccc2c1C(F)(F)F [Compound 549]
Class symbols
  EC50: 0.2 to 1 µM

## O=C(NCC1(c2cccc(Cl)c2)CCOCC1)Nc1ccc2[nH]ccc2c1 [Compound 274]
Numeric bounds
  EC50: > 30 µM

## CC(C)(C)OC(=O)N1Cc2cnc(Nc3ccc4cc[nH]c4c3)nc2C1 [Compound 418, tert-butyl 2-((1H-indol-6-yl)amino)-5H-pyrrolo[3,4-d]pyrimidine-6(7H)-carboxylate]
Class symbols
  EC50: 5 to 100 µM

## O=C(Nc1ccc(C(F)(F)F)cc1)Nc1cc(CO)c2cc[nH]c2c1 [Compound 157]
Numeric bounds
  EC50: > 30 µM

## Cc1cc(CNC(=O)Nc2ccc3cc[nH]c3c2)nn1C [Compound 185]
Numeric bounds
  EC50: > 30 µM

## Brc1ccc2ccc(Nc3ccc4cc[nH]c4c3)nc2c1 [Compound 607]
Class symbols
  EC50: 0.2 to 1 µM

## c1cc2c(c(Nc3ccc4cc[nH]c4c3)n1)CCCC2 [Compound 431, N-(1H-indol-6-yl)-5,6,7,8-tetrahydroisoquinolin-1-amine]
Class symbols
  EC50: 5 to 100 µM

## CCn1cc(CNC(=O)Nc2ccc3[nH]ccc3c2)cn1 [Compound 301]
Numeric bounds
  EC50: > 30 µM

## N#Cc1c[nH]c2cc(NC(=O)NCc3cc(Cl)cc(C(F)(F)F)c3)ccc12 [Compound 532]
Numeric bounds
  EC50: > 30 µM

## O=C(NCCOc1ccccc1C(F)(F)F)Nc1ccc2cc[nH]c2c1 [Compound 524]
Class symbols
  EC50: 1 to 5 µM

## Cn1ccc2ccc(NC(=O)Nc3ccc(C(F)(F)F)cc3)cc21 [Compound 268]
Class symbols
  EC50: 5 to 100 µM

## CC(C)(C)c1cc(NC(=O)Nc2ccc3cc[nH]c3c2)on1 [Compound 217]
Class symbols
  EC50: 5 to 100 µM

## CC(C)c1ccnc(Nc2ccc3cc[nH]c3c2)c1 [Compound 393, N-(4-isopropylpyridin-2-yl)-1H-indol-6-amine]
Numeric bounds
  EC50: > 30 µM

## O=C(Nc1cccc(S(F)(F)(F)(F)F)c1)Nc1ccc2[nH]ccc2c1 [Compound 346]
Numeric bounds
  EC50: > 30 µM

## O=C(Nc1ccc2cc[nH]c2c1)Nc1cnccn1 [Compound 220]
Numeric bounds
  EC50: > 30 µM

## FC(F)(F)c1ccc(Nc2ccc3cc[nH]c3c2)nc1Cl [Compound 591]
Class symbols
  EC50: 1 to 5 µM

## O=C(NCCc1c(F)cccc1Cl)Nc1ccc2cc[nH]c2c1 [Compound 209]
Class symbols
  EC50: 1 to 5 µM

## O=C(Nc1ccc(F)c(F)c1)Nc1ccc2[nH]ccc2c1 [Compound 342]
Numeric bounds
  EC50: > 30 µM

## O=C(Nc1ccc2[nH]ccc2c1)Nc1ccon1 [Compound 334]
Numeric bounds
  EC50: > 30 µM

## Cc1ccccc1CCNC(=O)Nc1ccc2cc[nH]c2c1 [Compound 212]
Class symbols
  EC50: 1 to 5 µM

## COCCc1cc(NC(=O)Nc2ccc(C(F)(F)F)cc2)cc2[nH]ccc12 [Compound 505]
Class symbols
  EC50: 1 to 5 µM

## O=C(Nc1ccc2cc[nH]c2c1)Nc1ccccc1Cl [Compound 194]
Numeric bounds
  EC50: > 30 µM

## c1cnc2nc(Nc3ccc4ccn(-c5ccc6cccnc6n5)c4c3)ccc2c1 [Compound 560, N-[1-(1,8-naphthyridin-2-yl)-1H-indol-6-yl]-1,8-naphthyridin-2-amine]
Class symbols
  EC50: 1 to 5 µM

## c1cc(Nc2ccc3cc[nH]c3c2)nc(N2CCCC2)c1 [Compound 397, N-(6-(pyrrolidin-1-yl)pyridin-2-yl)-1H-indol-6-amine]
Numeric bounds
  EC50: > 30 µM
